Reference: patent US11352396B2, “Antimicrobial peptides and methods of using same” (Zoetis Services LLC, priority 2017, dated 2022)

Experiments:
E. coli ATCC 25922 = assay type: cell-based; conditions: E. coli 25922, Table 6
Protocol: (§1) Peptides according to SEQ ID NOs as listed in Table 1 were prepared by a commercial manufacturer (CS Bio, Menlo Park, Calif.) using solid phase synthesis. Antimicrobial activity was assessed by determining the Minimal Inhibitory Concentration (MIC) against S. aureus and E. coli. Briefly, Microbroth MICs were performed using CLSI methodology (VET01-S2). For S. aureus and E. coli ATCC strains, TSA with 5% lysed horse blood agar was used for overnight culturing at 37° C. ambient air. A 0.5 mM stock for each peptide was made with cell culture water, 0.01% acetic acid and serially diluted and spotted (10 μL) in a 96-well plate for in assay dose titration concentration of 50 μM to 0.05 μM. 0.5 McFarland Standard of each strain was diluted 1:250 in Mueller-Hinton Broth (MHB). 90 μL of culture suspension was then added upon drug in the 96-well plate for overnight incubation for 18-20 hours. The MIC was determined visually at the first well of no visible growth at the corresponding concentration.

cRBC = assay type: cell-based, canine
Method in brief: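 Percent lysis, measured by absorbance at 405 nm, used 1% Triton X-100 as full effect and phosphate buffer as zero. Peptides spanned 50 µM–0.05 µM and were held with plasma-depleted washed erythrocytes at 37 °C for 1 h.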

[1] = test system: MSSP (Methicillin-Susceptible Staphylococcus pseudintermedius); assay: MIC against selected strains of MSSP; assay type: cell-based; parameters: MIC MSSP 49051 / MIC MSSP 81923 / MIC MSSP 84250 / Effect on MSSP 86000 / Effect on MSSP 72036 / Effect on MSSP 78032: unit not given beside the values; Effect on MSSP 71990 / Effect on MSSP 86001 / Effect on MSSP 72191 / Effect on MSSP 76986 / Effect on MSSP 77378 / Effect on MSSP 81923 / Effect on MSSP 84250 / Effect on MSSP 84658: unit: µM; conditions: for SP 49051: S. pseudintermedius 49051, Table 6; for Effect on MSSP 71990: strain 71990, Table 5; for Effect on MSSP 72036: strain 72036, Table 5; for Effect on MSSP 72191: strain 72191, Table 5; for Effect on MSSP 76986: strain 76986, Table 5; for Effect on MSSP 77378: strain 77378, Table 5; for Effect on MSSP 78032: strain 78032, Table 5; for Effect on MSSP 81923: strain 81923, Table 5; for Effect on MSSP 84250: strain 84250, Table 5; for Effect on MSSP 84658: strain 84658, Table 5; for Effect on MSSP 86000: strain 86000, Table 5; for Effect on MSSP 86001: strain 86001, Table 5
Method in brief: (§2)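 MIC read by eye as the first well showing no growth after 18–20 h incubation. Cultures at 0.5 McFarland were diluted 1:250 in Mueller-Hinton broth and exposed to peptide over 50 μM–0.05 μM in the assay, per CLSI VET01-S2 microbroth method.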

[2] = test system: Canine-derived epithelial keratinocyte (CPEK) cells; assay type: cell-based
Method in brief: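 Viability was read by CellTiter-Glo luminescence after overnight exposure (37 °C, 5% CO2) of canine keratinocytes to a peptide range of 50–0.05 μM. Percent effect used phosphate buffer as the zero control and 0.1% Triton X-100 as the full-effect control.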

S. aureus ATCC 29213 = assay type: cell-based; parameters: key to SA 29213: MIC in μM (lowest conc. with no visible growth); conditions: S. aureus 29213, Table 6
Protocol: as §1

[3] = test system: MRSP (Methicillin-Resistant Staphylococcus pseudintermedius); assay: MIC against selected strains of MRSP; assay type: cell-based; parameters: key to MIC MRSP 72192 / MIC MRSP 76923 / MR 71994 / Mr 88493 / MR 72035 / MR 72192 / MR 76923 / MR 79882 / MR 80279 / MR 81926 / MR 86002 / MR 87665: MIC in μM (visual, first well with no growth); conditions: for MR 71994: MRSP strain 71994, Table 6; for MR 72035: MRSP strain 72035, Table 6; for MR 72192: MRSP strain 72192, Table 6; for MR 76923: MRSP strain 76923, Table 6; for MR 79882: MRSP strain 79882, Table 6; for MR 80279: MRSP strain 80279, Table 6; for MR 81926: MRSP strain 81926, Table 6; for MR 86002: MRSP strain 86002, Table 6; for MR 87665: MRSP strain 87665, Table 6; for Mr 88493: MRSP strain 88493, Table 6
Method in brief: as §2

| Substance | EC 25922 (E. coli ATCC 25922) [µM] | cRBC (50 μM) (cRBC) | SP 49051 [1] | Effect on MSSP 71990 [1] | Effect on MSSP 72036 [1] | Effect on MSSP 72191 [1] | Effect on MSSP 76986 [1] | Effect on MSSP 77378 [1] | Effect on MSSP 78032 [1] | Effect on MSSP 81923 [1] | Effect on MSSP 84250 [1] | Effect on MSSP 84658 [1] | Effect on MSSP 86000 [1] | Effect on MSSP 86001 [1] | CPEK (50 μM) [2] | SA 29213 (S. aureus ATCC 29213) | MR 71994 [3] | MR 72035 [3] | MR 72192 [3] | MR 76923 [3] | other results |
| --- | --- | --- | --- | --- | --- | --- | --- | --- | --- | --- | --- | --- | --- | --- | --- | --- | --- | --- | --- | --- | --- |
| 117 (GWCFYVCYRGICYRRCRD; Artificial Antimicrobial peptide) [compound 117] | 0.8 | 97.8 | 1.6 | 1.6 | 1.6 | 1.6 | 0.8 | 0.8 | 1.6 | 1.6 | 1.6 | 1.6 | 1.6 | 1.6 | 14.7 | 6.2 | 1.6 | 1.6 | 0.8 | 1.6 | MR 79882 [3]: 0.8; MR 80279 [3]: 1.6; MR 81926 [3]: 1.6; MR 86002 [3]: 0.8; MR 87665 [3]: 1.6; Mr 88493 [3]: 1.6 |
| 30 (PWCFRVCYRGICYRRCR; Artificial Antimicrobial peptide) [compound 30] | 1.6 | 63.5 | 1.6 | 0.8 | 0.8 | 1.6 | 0.8 | 0.8 | 0.8 | 0.8 | 0.8 | 1.6 | 1.6 | 1.6 | 17.0 | 3.1 | 1.6 | 0.8 | 0.8 | 0.8 | MR 79882 [3]: 0.8; MR 80279 [3]: 0.8; MR 81926 [3]: 1.6; MR 86002 [3]: 1.6; MR 87665 [3]: 1.6; Mr 88493 [3]: 1.6 |
| 107 (KWCFRVCWRGICYRRCRD; Artificial Antimicrobial peptide) [compound 107] | 3.1 | 101.8 | 1.6 | 1.6 | 1.6 | 1.6 | 1.6 | 1.6 | 1.6 | 1.6 | 1.6 | 1.6 | 1.6 | 1.6 | 26.3 | 3.1 | 1.6 | 3.1 | 1.6 | 1.6 | MR 79882 [3]: 0.8; MR 80279 [3]: 1.6; MR 81926 [3]: 1.6; MR 86002 [3]: 1.6; MR 87665 [3]: 1.6; Mr 88493 [3]: 1.6 |
| 116 (KWCFYVCYRGICYRRCND; Artificial Antimicrobial peptide) [compound 116] | 0.8 | 87.0 | 1.6 | 1.6 | 1.6 | 1.6 | 1.6 | 1.6 | 1.6 | 1.6 | 1.6 | 1.6 | 1.6 | 1.6 | 16.0 | 6.2 | 1.6 | 1.6 | 1.6 | 1.6 | MR 79882 [3]: 1.6; MR 80279 [3]: 1.6; MR 81926 [3]: 1.6; MR 86002 [3]: 3.1; MR 87665 [3]: 1.6; Mr 88493 [3]: 1.6 |
| 115 (GWCFRVCYRGICYRRCND; Artificial Antimicrobial peptide) [compound 115] | 0.8 | 94.6 | 1.6 | 1.6 | 1.6 | 1.6 | 1.6 | 0.8 | 1.6 | 1.6 | 1.6 | 1.6 | 1.6 | 1.6 | 5.1 | 3.1 | 1.6 | 1.6 | 1.6 | 1.6 | MR 79882 [3]: 0.8; MR 80279 [3]: 1.6; MR 81926 [3]: 1.6; MR 86002 [3]: 1.6; MR 87665 [3]: 1.6; Mr 88493 [3]: 1.6 |
| 28 (PKWCFRVCYRGICYRRCR; Artificial Antimicrobial peptide) [compound 28] | 0.8 | 94.4 | 1.6 | 1.6 | 1.6 | 1.6 | 0.8 | 1.6 | 1.6 | 1.6 | 1.6 | 1.6 | 1.6 | 1.6 | 19.4 | 6.2 | 1.6 | 3.1 | 3.1 | 1.6 | MR 79882 [3]: 0.8; MR 80279 [3]: 1.6; MR 81926 [3]: 1.6; MR 86002 [3]: 1.6; MR 87665 [3]: 1.6; Mr 88493 [3]: 1.6 |
| 105 (KWCFRVCYRGICYRRCRN; Artificial Antimicrobial peptide) [compound 105] | 3.1 | 97.9 | 1.6 | 1.6 | 1.6 | 1.6 | 1.6 | 0.8 | 1.6 | 1.6 | 1.6 | 3.1 | 1.6 | 1.6 | 8.6 | 6.2 | 1.6 | 1.6 | 1.6 | 1.6 | MR 79882 [3]: 0.8; MR 80279 [3]: 1.6; MR 81926 [3]: 1.6; MR 86002 [3]: 1.6; MR 87665 [3]: 1.6; Mr 88493 [3]: 3.1 |
